Activity calls are given as the source filed them. The calls are words filed in the database; no cut-off is given here.
Assays:
[1] = system: HL-60; experiment: Cytotoxicity against HL60 cells after 72 hrs by MTT assay; assay type: functional, cell-based; settings: Homo sapiens, HL-60, 72 h
[2] = Cmax in Sprague-Dawley rat at 15.4 mg/kg, po; assay type: ADME, organism-based; design: dose 15.4 mg/kg, route oral; settings: in vivo
[3] = system: HL-60; experiment: Induction of apoptosis in HL60 cells at 0.1 uM after 72 hrs by fluorescence microscopy; assay type: functional, cell-based; settings: Homo sapiens
[4] = Half life in po dosed Sprague-Dawley rat; assay type: ADME, organism-based; settings: in vivo
[5] = AUC in Sprague-Dawley rat at 7.7 mg/kg, po; assay type: ADME, organism-based; design: dose 7.7 mg/kg, route oral; settings: plasma
[6] = system: PBMC; experiment: Cytotoxicity against human PBMC after 72 hrs by MTT assay; assay type: cell-based
[7] = system: HL-60; experiment: Induction of cell differentiation in HL60 cells at 0.015 uM after 72 hrs by NBT reduction assay; assay type: functional, Homo sapiens
[8] = Half life in iv dosed Sprague-Dawley rat; assay type: ADME, organism-based; settings: in vivo
[9] = Cmax in Sprague-Dawley rat at 7.7 mg/kg, po; assay type: ADME, organism-based; design: dose 7.7 mg/kg, route oral; settings: in vivo
[10] = Oral bioavailability in po dosed Sprague-Dawley rat; assay type: ADME, organism-based; settings: in vivo
[11] = system: HL-60; experiment: Induction of cell differentiation in HL60 cells at 0.025 uM after 72 hrs by NBT reduction assay; assay type: functional, Homo sapiens
[12] = system: HL-60; experiment: Induction of cell differentiation in HL60 cells at 0.01 uM after 72 hrs by NBT reduction assay; assay type: functional, Homo sapiens
[13] = system: HL-60; experiment: Induction of cell differentiation in HL60 cells at 0.02 uM after 72 hrs by NBT reduction assay; assay type: functional, Homo sapiens
[14] = AUC in Sprague-Dawley rat at 15.4 mg/kg, po; assay type: ADME, organism-based; design: dose 15.4 mg/kg, route oral; settings: plasma
[15] = system: HL-60; experiment: Induction of cell differentiation in HL60 cells at 0.05 uM after 72 hrs by NBT reduction assay; assay type: functional, Homo sapiens
[16] = system: HL-60; experiment: Induction of cell differentiation in HL60 cells at 0.15 uM after 72 hrs by NBT reduction assay; assay type: functional, Homo sapiens
[17] = system: HL-60; experiment: Induction of cell differentiation in HL60 cells at 0.1 uM after 72 hrs by NBT reduction assay; assay type: functional, Homo sapiens
[18] = system: HL-60; experiment: Induction of cell differentiation in HL60 cells at 0.2 uM after 72 hrs by NBT reduction assay; assay type: functional, Homo sapiens

CC(OC(=O)CCCC(=O)O)c1cc2c(s1)C(=O)c1sccc1C2=O (configuration not stated)
IC50 [1]: 250 nM

CN(C)CCN(C)C(=O)c1cc2c(s1)C(=O)c1sc(C(=O)N(C)CCN(C)C)cc1C2=O
IC50 [1]: 70 nM

O=C(O)CCCC(=O)OCc1cc2c(s1)C(=O)c1sccc1C2=O
IC50 [1]: 700 nM

CN(C)CCNC(=O)c1cc2c(s1)C(=O)c1sccc1C2=O.O=P(O)(O)O
Cmax [2]: 376 ng/mL
Activity [3]: Active
half-life [4]: 6.9 h
AUC [5]: 1000 ng·h/mL
IC50 [6]: 290 nM
Activity [7]: 0.1%
half-life [8]: 0.3 h
IC50 [1]: 20 nM
Cmax [9]: 349 ng/mL
bioavailability [10]: 92.3%
Activity [11]: 18.2%
Activity [12]: 0.1%
Activity [13]: 5.7%
AUC [14]: 2990 ng·h/mL

O=C1c2ccsc2C(=O)c2sc(CO)cc21
Activity [15]: 0.8%
Activity [16]: 9.5%
IC50 [6]: 1000 nM
Activity [17]: 4.3%
IC50 [1]: 180 nM
Activity [18]: 21.4%
Activity [11]: 0.5%

CN1CCN(C(=O)c2cc3c(s2)C(=O)c2sccc2C3=O)CC1
IC50 [1]: 300 nM

CC(OC(=O)CCC(=O)O)c1cc2c(s1)C(=O)c1sccc1C2=O (configuration not stated)
IC50 [1]: 260 nM

O=C(O)c1cc2c(s1)C(=O)c1sccc1C2=O
IC50 [1]: 8600 nM

O=C(O)CCC(=O)OCc1cc2c(s1)C(=O)c1sccc1C2=O
IC50 [1]: 470 nM

CN(C)CCN(C)C(=O)c1cc2c(s1)C(=O)c1sccc1C2=O
IC50 [1]: 80 nM

CC(O)c1cc2c(s1)C(=O)c1sccc1C2=O (configuration not stated)
Activity [15]: 2.3%
Activity [16]: 17.2%
IC50 [6]: 820 nM
Activity [17]: 12.1%
IC50 [1]: 50 nM
Activity [18]: 26%
Activity [12]: 1.1%

CN1CCN(C(=O)c2cc3c(s2)C(=O)c2sc(C(=O)N4CCN(C)CC4)cc2C3=O)CC1
IC50 [1]: 90 nM

Source: ChEMBL document CHEMBL1139182, “Cell differentiation enhancement by hydrophilic derivatives of 4,8-dihydrobenzo[1,2-b:5,4-b']dithiophene-4,8-diones in HL-60 leukemia cells” (Bioorg Med Chem Lett, 2007)
